Paper PMC11557929, “Environment-sensitive turn-on fluorescent probe enables live cell imaging of myeloperoxidase activity during NETosis” (Communications Chemistry, 2024)

Legend:
[1] = Fluorescence excitation and emission spectra in solvents of different polarity; format: physicochemical; conditions: for fluorescence increase in CH2Cl2 compared to PBS buffer (pH 7.4): approximate values
Method: To validate the solvatochromic properties of the probes, we recorded the fluorescence excitation and emission spectra of probes 1-6 in a 10 μM solution in CH2Cl2, CH3CN, CH3OH, and PBS buffer (pH 7.4, Table 1, Supplementary Table 1). These solvents have different polarities thereby emulating the hydrophobic enzyme-probe binding site environment (Supplementary Figs. 1-6). […] This effect was less prominent for 3 and 4 with a ~ 110-fold fluorescence increase, and for 5 and 6 with a ~ 30-fold fluorescence increase.
Probes 1-6 were prepared into 10 mM DMSO stock solutions and diluted to 10 μM with CH2Cl2, CH3CN, CH3OH, or PBS (pH 7.4). The fluorescence excitation spectra of each probe was measured between 300 and 480 nm for probes 1-4 and 300 and 500 nm for probes 5 and 6. The fluorescence emission spectra of each probe was measured between 480 and 700 nm for probes 1-4 and 500 and 700 nm for probes 5 and 6.

[2] = tested on: MPO activity in human polymorphonuclear neutrophils (hPMN); test: Wash-free live-cell imaging of probes in hPMN during NETosis; format: cell-based; conditions: 100 nM PMA, probe near IC50, 3 h, 37 °C; for MFI (mean fluorescence intensity): whole images
Method: With probes 1-6 in hand, we opted for a cell-based screening strategy to find suitable probes to image MPO activity during NETosis (Fig. 1A). In this approach, we stimulated freshly isolated human polymorphonuclear neutrophils (hPMN) with PMA and incubated with probes 1-6 at concentrations near their IC50 for 3 h. […] Subsequently, probes that show a significant ‘’turn-on” fluorescence compared to unstimulated cells are selected and tested for colocalization with an anti-MPO antibody in fixed cells. With this cell-based strategy, potential suitable probes to image MPO activity during NETosis can be immediately identified. Therefore, live hPMN were incubated with PMA and probes 1-6 and imaged directly (Fig. 1B).
Colocalization analysis was performed with JaCoP[34].

MPO [3] = biological target: T1, MPO (Homo sapiens, UniProt P05164); test: Amplex Red assay of MPO peroxidase activity; format: biochemical; conditions: for IC50: Amplex Red assay, t = 30 min, 100 pM MPO, 1 µM H2O2
T1 sequence (P05164 49-745): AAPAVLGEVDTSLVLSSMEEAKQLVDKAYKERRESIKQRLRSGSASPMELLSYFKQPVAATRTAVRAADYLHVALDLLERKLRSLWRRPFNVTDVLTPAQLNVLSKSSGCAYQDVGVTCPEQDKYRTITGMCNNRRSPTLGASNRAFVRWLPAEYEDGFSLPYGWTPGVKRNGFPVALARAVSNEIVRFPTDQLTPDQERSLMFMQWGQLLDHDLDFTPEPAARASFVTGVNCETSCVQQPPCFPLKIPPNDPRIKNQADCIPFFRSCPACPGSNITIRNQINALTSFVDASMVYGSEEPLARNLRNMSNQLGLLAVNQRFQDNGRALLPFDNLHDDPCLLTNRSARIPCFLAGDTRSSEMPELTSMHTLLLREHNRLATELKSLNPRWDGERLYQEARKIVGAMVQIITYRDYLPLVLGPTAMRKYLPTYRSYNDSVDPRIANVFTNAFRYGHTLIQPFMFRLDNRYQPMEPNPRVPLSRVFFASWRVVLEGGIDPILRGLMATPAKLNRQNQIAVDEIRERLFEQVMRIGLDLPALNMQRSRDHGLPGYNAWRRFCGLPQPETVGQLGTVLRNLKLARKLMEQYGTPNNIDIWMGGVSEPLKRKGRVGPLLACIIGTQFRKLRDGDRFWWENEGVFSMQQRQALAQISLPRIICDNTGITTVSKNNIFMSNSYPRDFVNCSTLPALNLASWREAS
From the text: Having obtained the fluorescent properties of probes 1-6, we determined their functional properties by the Amplex Red assay as previously reported (Table 1, Supplementary Figs. 1-6)[27]. In this assay, 10-acetyl-3,7-dihydroxyphenoxazine is oxidized by MPO in the presence of H2O2 to resorufin, a highly fluorescent compound with an fluorescence excitation and emission maxima of 571 and 585 nm, respectively. Fortunately, probes 1, 2, 4, 5, and 6 retained similar IC50 values as those previously reported for 2-thioxanthine-based inhibitors despite the presence of the environment-sensitive fluorophores[27],[33]. However, we noticed a slight negative trend in the IC50 of probes containing the shorter ethyl spacer. This effect was more evident in probe 3, which experienced a ~ 4-fold reduction in IC50 values compared to its counterpart probe 4.
MPO peroxidase activity and the determination of inhibitor potencies were performed as described before with minimal changes. In brief, to 78 uL of assay mixture (PBS (pH 7.4), 1 µM H2O2, and 20 µM Amplex Red) were added 2 μL of probe 1-6 in concentrations from 0 to 40 µM in DMSO (final DMSO concentration of 2%) and mixed for 1 min. The reactions were initiated by the addition of 20 μL 500 pM MPO (final MPO concentration of 100 pM) followed by mixing for 5 s. Fluorescent changes (RFU/s) were monitored at room temperature every 20 s for 30 min with excitation and emission filters set at 530 and 580 nm, respectively. Initial rates (V0) were determined using linear regression analysis of the first 600 s corresponding to the linear range of the DMSO control. To calculate IC50 values, V0 and probe concentration were fit to a dose-response curve with a standard Hill slope of -1 using nonlinear regression analysis. The kobs, kinact, and KI values for probe 1 were calculated exactly as described before.

[4] = tested on: MPO activity in human polymorphonuclear neutrophils (hPMN); test: Wash-free live-cell imaging of probes in hPMN during NETosis; format: cell-based; conditions: 4 µM ionomycin, 1 µM probe, 3 h
MPO [5] = biological target: T1, MPO; test: Fluorescence turn-on of probe with purified MPO; format: biochemical; conditions: 1 µM probe, 15 µM MPO, 150 µM H2O2, PBS (pH 7.4)
Method: (§1) Furthermore, we confirmed the chemical stability of probe 1 in cell culture media with or without serum for 4 and 24 h at 37 °C (Supplementary Fig. 7).
(§2) To a stirring solution of the corresponding N-Boc aldehyde B1 or B2 (7.6 mmol) and AcOH (1.2 mmol) in dry CH3OH (30 mL) was added 4-amino-1H-imidazole-5-carboxamide (6.0 mmol). The reaction was stirred for 2.5 h under N2 before NaBH3CN (7.2 mmol) was added in one portion and the mixture was left stirring overnight under N 2. A solution of sat. aq. NaHCO3 was added and most of the CH3OH was removed in vacuo. The residue was extracted with EtOAc and the combined organic layers were dried over MgSO 4, filtered, and the crude product purified by flash silica gel column chromatog raphy (0-10% CH3OH/CH2Cl2) to give C1 or C2. […]
(§3) The solutions were incubated for 5 min and the fluorescence emission spectra was measured between 480 and 600 nm. […]
(§4) Probe 1 was diluted to 400 µM and incubated in CH3CN, RPMI 1640, or RPMI 1640 supplemented with 2% FCS for 0, 4, and 24 h at 37 °C under constant shaking. […] The supernatant was filtered and analyzed by HPLC. […]
(§5) Differentiation was assessed morphologically by fluorescent nuclear staining (Hoechst 33342) and by evaluation of CD11b expre ssion with a rat primary antibody directed against human CD11b (M1/70, Invitrogen, 1:400, 30 min, 4 °C) using a BD FACSVerse Flow Cytometer. Data were analyzed with FlowJo. […]

[6] = Chemical stability in cell culture media (HPLC); format: physicochemical; conditions: cell culture media with or without serum, 4 and 24 h, 37 °C
Method: as §1, §2, §3, §4, §5

[7] = from kobs vs probe concentration

Structure (SMILES)	fluorescence increase in CH2Cl2 compared to PBS buffer (pH 7.4) ([1]; 10 μM)	λem ([1]; CH2Cl2, 10 μM) [nm]	λex ([1]; CH2Cl2, 10 μM) [nm]	λem ([1]; PBS (pH 7.4), 10 μM) [nm]	λex ([1]; PBS (pH 7.4), 10 μM) [nm]	IC50 (MPO [3]) [µM]	fluorescence increase with MPO compared to probe alone, ABAH pre-treated MPO or BSA (MPO [5])	chemical stability [6]	kinact/KI (MPO [3]) [M^−^1s^−^1]	Ki (MPO [3]; [7]) [µM]	kinact (MPO [3]; [7]) [s^−^1]	S/B (signal-to-background ratio) [2]	MFI (mean fluorescence intensity) [2] [gray values]	fluorescence increase at λem in CH2Cl2 compared to PBS (pH 7.4) ([1]; supplementary figure legends) [x]	probe signal in ionomycin-stimulated cells [4]
O=c1[nH]c(=S)n(CCNc2ccc([N+](=O)[O-])c3nonc23)c2nc[nH]c12 [Probe 5]	~ 30 fold	522	452	558	473	0.497 ± 0.086							< 0.1	40	
O=c1[nH]c(=S)n(CCOCCNc2ccc([N+](=O)[O-])c3nonc23)c2nc[nH]c12 [Probe 6]	~ 30 fold	517	452	558	488	0.388 ± 0.035							< 0.1		

The next lines start with results.

fluorescence increase in CH2Cl2 compared to PBS buffer (pH 7.4) ([1]; 10 μM)	λem ([1]; CH2Cl2, 10 μM) [nm]	λex ([1]; CH2Cl2, 10 μM) [nm]	λem ([1]; PBS (pH 7.4), 10 μM) [nm]	λex ([1]; PBS (pH 7.4), 10 μM) [nm]	IC50 (MPO [3]) [µM]	fluorescence increase with MPO compared to probe alone, ABAH pre-treated MPO or BSA (MPO [5])	chemical stability [6]	kinact/KI (MPO [3]) [M^−^1s^−^1]	Ki (MPO [3]; [7]) [µM]	kinact (MPO [3]; [7]) [s^−^1]	Structure (SMILES)	S/B (signal-to-background ratio) [2]	MFI (mean fluorescence intensity) [2] [gray values]	fluorescence increase at λem in CH2Cl2 compared to PBS (pH 7.4) ([1]; supplementary figure legends) [x]	probe signal in ionomycin-stimulated cells [4]
~ 110 fold	532	417	600	435	4.57 ± 1.83						CN(C)S(=O)(=O)c1ccc(NCCn2c(=S)[nH]c(=O)c3[nH]cnc32)c2nonc12 [Probe 3]	8.9	1.5		
~ 300 fold	512	415	560	446	0.479 ± 0.017						CN(C)c1ccc2c3c(cccc13)C(=O)N(CCOCCn1c(=S)[nH]c(=O)c3[nH]cnc31)C2=O [Probe 2]	11.7	3.0		
~ 300 fold	510	415	560	457	0.854 ± 0.044	~ 13 fold	chemically stable	4263	1.08 ± 0.073	0.0046 ± 0.0001	CN(C)c1ccc2c3c(cccc13)C(=O)N(CCn1c(=S)[nH]c(=O)c3[nH]cnc31)C2=O [Probe 1]	16.7	6.9		not significantly different from unstimulated background levels
~ 110 fold	535	420	600	435	1.09 ± 0.151						CN(C)S(=O)(=O)c1ccc(NCCOCCn2c(=S)[nH]c(=O)c3[nH]cnc32)c2nonc12 [Probe 4]	7.3	1.8		
